Reference: patent US11230526B1, “Cylcoalkenyl derivatives useful as agonists of the GPR120 and/or GPR40 receptors” (Janssen Pharmaceutica NV, priority 2018, dated 2022)

Experiments:
Type in all cases: cell-based
human GPR40 = target: T1, human GPR40 (Homo sapiens, UniProt O14842); test: GPR40 calcium flux assay, human GPR40; details: HEK293 cells stably expressing GPR40; table does not say human or rat
T1 construct: expressed in transfected cells
In short: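 Cells preincubated 1 h at 37° C. in HBSS, 20 mM HEPES, 0.1% BSA, then Fluo 8 calcium dye 30 min at 37° C. and 15 min at room temperature.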

Human GPR120 short form [1] = target: T2, Human GPR120 short form (Homo sapiens, UniProt Q5NUL3); test: Human GPR120 calcium flux assay, Procedure Calcium A (2500 cells/well)
T2 construct: expressed in transfected cells
T2 sequence (Q5NUL3 1-361): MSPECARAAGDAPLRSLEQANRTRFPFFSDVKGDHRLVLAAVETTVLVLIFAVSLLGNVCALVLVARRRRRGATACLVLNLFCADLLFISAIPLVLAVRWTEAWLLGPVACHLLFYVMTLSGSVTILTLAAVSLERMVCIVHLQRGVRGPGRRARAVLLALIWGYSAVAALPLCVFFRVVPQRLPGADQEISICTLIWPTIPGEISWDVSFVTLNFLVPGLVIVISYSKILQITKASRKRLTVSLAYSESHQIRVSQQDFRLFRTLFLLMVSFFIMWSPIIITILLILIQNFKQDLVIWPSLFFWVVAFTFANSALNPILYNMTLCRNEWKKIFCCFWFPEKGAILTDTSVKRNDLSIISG
Excerpt: Human GPR120 in Calcium Flux Assay
This in vitro assay serves to assess test compound agonist activity against the short splice variant (SVS with Accession number NM_001195755.1 confirmed by sequencing data) of the GPR120 receptor. The Human Short splice variant #2 (NM_001195755.1) is missing an in-frame coding exon compared to variant 1 (the Human Long splice variant NM_181745.3), resulting in a shorter isoform (GPR120-S) lacking a 16 aa protein segment compared to isoform GPR120-L. The assay platform utilizes HEK-293 cells stably transfected to express the Human GPR120 short form. These cells are first loaded with the Ca^+2 sensitive dye, Fluo-4 NW. Upon stimulation, intracellular released Ca^+2 can bind to the dye and alter its fluorescence intensity. This increase in fluorescence signal, and thus the flux in intracellular [Ca^2+], is detected and quantitated by fluorescence imaging using a FLIPR reader. The effect of the agonist is measured as a function of concentration and used to calculate an EC50 based upon a response curve.
In this procedure 2500 cells/well were employed.
A Human GPR120 clone (Genbank accession number NM_001195755.1) was placed into the pcDNA3.1 mammalian expression vector carrying the neomycin resistance gene. A stable mammalian cell was generated by placing the above clone into a HEK293 background. Clonal cells responding to long chain fatty acids had expression levels of GPR120 confirmed by RT-qPCR. Human HEK-GPR120 cells were cultured in Dulbecco's Modified Eagle's Medium (DMEM)/F12 medium supplemented with 10% fetal bovine serum (FBS), 1% L-Glutamine and 1% penicillin/streptomycin and 0.5 mg/ml G-418. Cells were split 2 times a week to keep the cells in the log-phase growth.
In preparation for the assay, HEK cells stably transfected with Human GPR120 (2.5K cells per well in 25 uL growth medium) were seeded into 384-well plates and then incubated overnight (37° C., 5% CO2). The next day, the media was changed to 20 μL assay buffer and the cell starved for 1 h at 37° C. The dye loading solution (2× dye) was prepared using 10 mL assay buffer, 100 μL of 250 mM probenecid, 1 bottle of Component A, and 20 μl of dye in DMSO. Twenty μL of the 2× dye loading buffer was then added to each well. The plates were incubated at 37° C. for 30 min, then at room temperature for an additional 15 minutes, before performing the assay on FLIPR.
The assay was performed on a FLIPR plate reader using the following parameters. Baseline was read for 10 seconds at 1 sec intervals. The program was set to transfer 10 μL of ligand from compound plate to cell plate after baseline reading. Aspiration was executed at: 10 μL/sec speed, 4.6 μL height, Dispensing was executed at: 30 μL/sec speed, 45 μL height. After compound addition, each well was read for 300 sec, with measurements collected at 1 sec intervals.
The kinetic data from the FLIPR was based upon a 5 minute window for data collection. The fluorescence of each sample well was used for individual calculations of a normalized RFU value, which was defined as maximum response minus the minimum response. The normalized fluorescence reading (RFU) was calculated as follows: RFU=Fmax−Fmin
The Fitting Equation was: Y=Bottom+(Top-Bottom)/(1+10^((Log EC50−X)*HillSlope)), where X is the log of the concentration and Y is the response.

Human GPR120 short form [2] = target: T2, Human GPR120 short form; test: Human GPR120 calcium flux assay, Procedure Calcium B (4200 cells/well)
In short: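 Agonist EC50 came from a four-parameter fit of RFU (Fmax−Fmin) read over 300 s on FLIPR. Cells were HEK293 stably transfected with human GPR120 (NM_001195755.1) at 4200 per well, serum-starved 1 h and loaded with Fluo-4 NW dye with probenecid before ligand addition.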

[3] = target: T3, long form of human GPR120 (Homo sapiens, UniProt Q5NUL3); test: Human GPR120 DiscoveRx PathHunter Beta-Arrestin assay, Procedure β-arrestin A
T3 construct: host or cells: PathHunter CHO-K1 GPR120 β-Arrestin Cell Line
In short: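 PathHunter CHO-K1 cells expressing long-form human GPR120 (3000/well) were seeded overnight. They were then preincubated 60 min in HBSS with 20 mM HEPES and 0.1% BSA, pH 7.4, and exposed to compound for 90 min at 37 °C. β-Arrestin recruitment was read as β-gal complementation luminescence. EC50 came from % activity versus positive control, Hill slope fixed at 1.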

T3 sequence (Q5NUL3 1-377 isoform Q5NUL3-1): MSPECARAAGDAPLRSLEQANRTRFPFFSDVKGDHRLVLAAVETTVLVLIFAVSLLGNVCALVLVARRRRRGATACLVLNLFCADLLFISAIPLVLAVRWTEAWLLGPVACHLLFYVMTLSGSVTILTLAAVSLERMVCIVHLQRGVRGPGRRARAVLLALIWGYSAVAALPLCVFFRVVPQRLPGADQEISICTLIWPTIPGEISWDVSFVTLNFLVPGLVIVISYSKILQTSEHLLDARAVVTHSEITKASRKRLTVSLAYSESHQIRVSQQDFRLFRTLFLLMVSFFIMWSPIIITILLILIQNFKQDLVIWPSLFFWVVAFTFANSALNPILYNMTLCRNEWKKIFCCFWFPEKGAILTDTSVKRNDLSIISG
T3 sequence (P32121 whole entry partner): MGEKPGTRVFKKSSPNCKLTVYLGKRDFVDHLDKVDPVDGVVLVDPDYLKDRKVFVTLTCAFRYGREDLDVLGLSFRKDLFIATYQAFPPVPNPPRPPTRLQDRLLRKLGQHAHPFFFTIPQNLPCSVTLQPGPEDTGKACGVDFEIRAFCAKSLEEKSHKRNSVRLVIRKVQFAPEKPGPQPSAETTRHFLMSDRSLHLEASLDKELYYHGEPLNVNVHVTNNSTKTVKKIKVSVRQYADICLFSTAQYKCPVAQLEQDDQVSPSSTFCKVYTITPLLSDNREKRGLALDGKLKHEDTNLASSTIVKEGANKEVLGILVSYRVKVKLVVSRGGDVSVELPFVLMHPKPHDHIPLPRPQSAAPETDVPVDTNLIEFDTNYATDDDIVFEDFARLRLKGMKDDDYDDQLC
T1 sequence (O14842 whole entry): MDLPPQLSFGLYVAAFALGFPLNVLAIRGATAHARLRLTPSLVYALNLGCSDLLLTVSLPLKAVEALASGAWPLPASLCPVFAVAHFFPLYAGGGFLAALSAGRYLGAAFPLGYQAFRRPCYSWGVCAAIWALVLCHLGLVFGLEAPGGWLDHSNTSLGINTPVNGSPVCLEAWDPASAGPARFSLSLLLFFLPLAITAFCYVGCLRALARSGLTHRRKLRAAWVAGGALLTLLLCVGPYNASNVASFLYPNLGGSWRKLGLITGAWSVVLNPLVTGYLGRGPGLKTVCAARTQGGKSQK

| EC50 (human GPR40) | EC50 (Human GPR120 short form [1]) | EC50 (Human GPR120 short form [2]) | EC50 [3] | Compound |
| --- | --- | --- | --- | --- |
| > 5000 nM | > 20000 nM | – | – | COc1ccc(C2=C(COc3ccc(CCC(=O)O)c(C)c3C)CCC2)cc1 [Compound 21, 3-(4-((2-(4-methoxyphenyl)cyclopent-1-en-1-yl)methoxy)-2,3-dimethylphenyl)Propanoic Acid] |
| > 5000 nM | > 20000 nM | – | – | Cc1c(CCC(=O)O)ccc(OCC2=C(c3ccsc3)CCC2)c1C [Compound 22, 3-(2,3-dimethyl-4-((2-(thiophen-3-yl)cyclopent-1-en-1-yl)methoxy)phenyl)Propanoic Acid] |
| > 5000 nM | > 20000 nM | – | – | O=C(O)CCc1ccc(OCC2=C(c3ccc(Cl)cc3)CCC2O)c(F)c1F (centres unmarked) [Compound 45] |
| – | > 20000 nM | – | – | CC(=O)Nc1ccc(C2=C(COc3ccc(CCC(=O)O)c(C)c3C)CCC2)cc1 [Compound 51, 3-[4-[[2-(4-acetamidophenyl)cyclopenten-1-yl]methoxy]-2,3-dimethyl-phenyl]Propanoic Acid] |
| > 10000 nM | > 20000 nM | – | – | Cc1c(CCC(=O)O)ccc(OCC2=C(c3ccc(S(C)(=O)=O)cc3)CCC2)c1C [Compound 74, 3-[2,3-dimethyl-4-[[2-(4-methylsulfonylphenyl)cyclopenten-1-yl]methoxy]phenyl]Propanoic Acid] |
| > 5000 nM | > 5000 nM | – | – | COc1cc(C2=C(COc3ccc(CCC(=O)O)c(C)c3C)CCC2)ccc1C [Compound 113, 3-(4-((2-(3-methoxy-4-methylphenyl)cyclopent-1-en-1-yl)methoxy)-2,3-dimethylphenyl)Propanoic Acid] |
| – | > 5000 nM | – | – | Cc1c(CCC(=O)O)ccc(OCC2=C(c3ccc([S+](C)[O-])cc3)CCC2)c1C (centres unmarked) [Compound 120, 3-[2,3-dimethyl-4-[[2-(4-methylsulfinylphenyl)cyclopenten-1-yl]methoxy]phenyl]Propanoic Acid] |
| – | 2450 nM | 2470 nM | – | Cc1c(CCC(=O)O)ccc(OCC2=C(c3ccncc3)CCC2)c1C [Compound 139, 3-[2,3-dimethyl-4-[[2-(4-pyridyl)cyclopenten-1-yl]methoxy]phenyl]Propanoic Acid] |
| – | 2260 nM | 1360 nM | – | CCOc1ccc(C2=C(COc3ccc(CCC(=O)O)c(C)c3C)CCCC2)cc1 [Compound 461, 3-[4-[[2-(4-ethoxyphenyl)cyclohexen-1-yl]methoxy]-2,3-dimethyl-phenyl]Propanoic Acid] |
| – | 1340 nM | 1250 nM | – | Cc1c(CCC(=O)O)ccc(OCC2=C(c3ccccc3Cl)CCCC2)c1C [Compound 464, 3-[4-[[2-(2-chlorophenyl)cyclohexen-1-yl]methoxy]-2,3-dimethyl-phenyl]Propanoic Acid] |
| – | 4440 nM | 1450 nM | – | Cc1c(CCC(=O)O)ccc(OCC2=C(c3ccc(OC(F)(F)F)cc3)CCCC2)c1C [Compound 466, 3-[2,3-dimethyl-4-[[2-[4-(trifluoromethoxy)phenyl]cyclohexen-1-yl]methoxy]phenyl]Propanoic Acid] |
| 2350 nM | – | 754 nM | 1650 nM | Cc1cc(CCC(=O)O)ccc1OCC1=C(c2cnn(C)c2)CCC(F)(F)C1 [Compound 546, 3-[4-[[5,5-difluoro-2-(1-methylpyrazol-4-yl)cyclohexen-1-yl]methoxy]-3-methyl-phenyl]Propanoic Acid] |
| 3490 nM | – | 500 nM | 1340 nM | Cc1cc(CCC(=O)O)ccc1OCC1=C(c2cncs2)CCC(F)(F)C1 [Compound 548, 3-[4-[(5,5-difluoro-2-thiazol-5-yl-cyclohexen-1-yl)methoxy]-3-methyl-phenyl]Propanoic Acid] |
| 642 nM | – | 482 nM | 437 nM | Cc1ncc(C2=C(COc3ccc(CCC(=O)O)cc3C)CC(F)(F)CC2)s1 [Compound 550, 3-[4-[[5,5-difluoro-2-(2-methylthiazol-5-yl)cyclohexen-1-yl]methoxy]-3-methyl-phenyl]Propanoic Acid] |
| 2340 nM | – | 525 nM | 727 nM | Cc1ncc(C2=C(COc3ccc(CCC(=O)O)c(C)c3C)CC(F)(F)CC2)s1 [Compound 553, 3-[4-[[5,5-difluoro-2-(2-methylthiazol-5-yl)cyclohexen-1-yl]methoxy]-2,3-dimethyl-phenyl]Propanoic Acid] |
| > 5000 nM | – | 381 nM | 1310 nM | Cc1c(CCC(=O)O)ccc(OCC2=C(c3ccc(C#N)s3)CCC(F)(F)C2)c1C [Compound 558, 3-[4-[[2-(5-cyano-2-thienyl)-5,5-difluoro-cyclohexen-1-yl]methoxy]-2,3-dimethyl-phenyl]Propanoic Acid] |
| 4100 nM | – | 118 nM | 175 nM | Cc1cc(CCC(=O)O)ccc1OCC1=C(c2cccs2)CCC(F)(F)C1 [Compound 560, 3-[4-[[5,5-difluoro-2-(2-thienyl)cyclohexen-1-yl]methoxy]-3-methyl-phenyl]Propanoic Acid] |
| > 5000 nM | – | 119 nM | 245 nM | Cc1ccc(C2=C(COc3c(F)cc(CCC(=O)O)cc3F)CC(F)(F)CC2)s1 [Compound 562, 3-[4-[[5,5-difluoro-2-(5-methyl-2-thienyl)cyclohexen-1-yl]methoxy]-3,5-difluoro-phenyl]Propanoic Acid] |
| 3340 nM | – | 165 nM | 209 nM | Cc1cc(CCC(=O)O)ccc1OCC1=C(c2ccc(Cl)cc2)CC(F)(F)CC1 [Compound 566, 3-[4-[[2-(4-chlorophenyl)-4,4-difluoro-cyclohexen-1-yl]methoxy]-3-methyl-phenyl]Propanoic Acid] |
| > 5000 nM | – | 299 nM | 519 nM | O=C(O)CCc1cc(F)c(OCC2=C(c3ccco3)CCC(F)(F)C2)c(F)c1 [Compound 569, 3-[4-[[5,5-difluoro-2-(2-furyl)cyclohexen-1-yl]methoxy]-3,5-difluoro-phenyl]Propanoic Acid] |
| > 5000 nM | – | 641 nM | 1010 nM | N#Cc1ccc(C2=C(COc3c(F)cc(CCC(=O)O)cc3F)CC(F)(F)CC2)s1 [Compound 572, 3-[4-[[2-(5-cyano-2-thienyl)-5,5-difluoro-cyclohexen-1-yl]methoxy]-3,5-difluoro-phenyl]Propanoic Acid] |
| 4500 nM | – | 444 nM | 643 nM | Cc1cc(CCC(=O)O)ccc1OCC1=C(c2ccc(C#N)s2)CCC(F)(F)C1 [Compound 573, 3-[4-[[2-(5-cyano-2-thienyl)-5,5-difluoro-cyclohexen-1-yl]methoxy]-3-methyl-phenyl]Propanoic Acid] |
